From US8124629B2, “Naphthylacetic acids” (Hoffmann-La Roche Inc., priority 2008, dated 2012)

What was measured:
[1] = target: T1, human CRTH2 (Homo sapiens, UniProt Q9Y5Y4); test: Human CRTH2 Receptor Binding Assay (whole cell, [3H]ramatroban); design: expressed in transfected cells; host or cells: CHO-K1; conditions: CHO-K1 cells expressing human CRTH2 and G-alpha16; 20 nM [3H]ramatroban; 1 hour, room temperature
T1 sequence (Q9Y5Y4 1-395): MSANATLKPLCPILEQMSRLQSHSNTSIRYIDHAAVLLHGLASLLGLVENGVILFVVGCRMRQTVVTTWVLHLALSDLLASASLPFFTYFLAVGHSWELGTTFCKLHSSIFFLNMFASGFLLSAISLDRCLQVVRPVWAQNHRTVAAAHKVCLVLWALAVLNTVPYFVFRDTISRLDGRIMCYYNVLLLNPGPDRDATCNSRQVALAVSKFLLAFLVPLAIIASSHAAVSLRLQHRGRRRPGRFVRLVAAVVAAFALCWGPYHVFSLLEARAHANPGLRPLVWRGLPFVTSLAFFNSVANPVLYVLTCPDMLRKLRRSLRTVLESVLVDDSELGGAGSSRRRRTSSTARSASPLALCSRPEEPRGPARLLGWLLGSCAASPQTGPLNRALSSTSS
Summary of the method: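 CHO-K1 cells stably co-expressing human CRTH2 and G-alpha16, 1.5×10^5 cells/reaction, bound 1 h at room temperature with 20 nM [3H]ramatroban in PBS, 10 mM MgCl2, 0.06% BSA. Filter-bound radioactivity counted; non-specific binding defined with 10 μM 15(R)-15-methyl PGD2. IC50 from 4-parameter fit of 7-concentration inhibition data.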

[2] = target: T1, human CRTH2; test: Calcium Flux Assay Using Fluorometric Imaging Plate Reader (FLIPR); format: cell-based; design: expressed in transfected cells; host or cells: CHO-K1 (previously transfected with G-alpha 16); conditions: CHO-K1 cells with G-alpha 16 and human CRTH2; inhibition of ligand (DK-PGD2) induced Ca2+ flux; read-out: FLIPR assay IC50 (exceptions, greater than 3)
Protocol: CHO-K1 cells previously transfected with G-alpha 16 were subsequently transfected with the human CRTH2 receptor and the neomycin resistance gene. Following selection in 800 μg/mL G418 (geneticin), individual clones were assayed for their receptor expression based on staining with an anti human CRTH2 IgG, followed by assaying for their response to 13,14-dihydro-15-keto Prostaglandin D2 (DK-PDG2) (ligand) in the Ca^2+Flux assay. Positive clones were then cloned by limiting dilution cloning. The transfected cells were cultured in Ham's F-12 medium supplemented with 10% fetal bovine serum, 2 mM glutamine , 100 U/mL penicillin/100 μg/mL streptomycin, 200 μg/mL hygromycin B, and 800 μg/mL G418 (geneticin). Cells were harvested with trypsin-EDTA (trypsin-ethylenediaminetetraacetic acid) and counted using ViaCount® reagent (from Guava Technologies, Inc. which contains two DNA-binding dyes that enable the reagent user to distinguish between viable and non-viable cells). The cell suspension volume was adjusted to 2.5×10^5 cells /mL with complete growth media. Aliquots of 50 μL were dispensed into BD Falcon™ 384 well black/clear microplates (from BD Biosciences, a division of Becton, Dickinson and Company) and the microplates were placed in a 37° C. CO2 incubator overnight. The following day, the microplates were used in the assay.
Loading Buffer containing dye (from the FLIPR® Calcium 3 Assay Kit from Molecular Devices, a division of MDS Analytical Technologies and MDS Inc.) was prepared by dissolving the contents of one bottle into 200 mL Hank's Balanced Salt Solution containing 20 mM HEPES (4-(2-hydroxyethyl)-1-piperazineethanesulfonic acid) and 2.5 mM probenecid. Growth media was removed from the cell plates and 25 μL of Hank's Balanced Salt Solution (HBSS) containing 20 mM HEPES, 0.05% BSA and 2.5 mM probenecid was added to each well followed by 25 μL of diluted dye using a Multidrop dispenser. The plates were then incubated for 1 hour at 37° C.
During the incubation, test compound plates were prepared by adding 90 μL of HBSS/20 mM HEPES/0.005% BSA buffer to the 2 μL of serial diluted compounds. To prepare serial diluted compounds, 20 mM stocks of compounds were dissolved in 100% DMSO. The compound dilution plate was set up as follows: well #1 received 5 μL of compound plus 10 μL of DMSO. Wells 2-10 received 10 μL of DMSO. 5 μL was mixed and transferred from well #1 into well #2. 1:3 serial dilutions were continued out 10 steps. 2 μL of diluted compound was transferred into duplicate wells of a 384 well “assay plate” and then 90 μL of buffer was added.
After incubation, both the cell and “assay plate” plates were brought to the fluorometric imaging plate reader (FLIPR®) and 20 μL of the diluted compounds were transferred to the cell plates by the FLIPR®. Plates were then incubated for 1 hour at room temperature. After the 1 hour incubation, plates were returned to the FLIPR® and 20 μL of 4.5× concentrated ligand was added to the cell plates. During the assay, fluorescence readings were taken simultaneously from all 384 wells of the cell plate every 1.5 seconds. Five readings were taken to establish a stable baseline, then 20 μL of sample was rapidly (30 μL/sec) and simultaneously added to each well of the cell plate. The fluorescence was continuously monitored before, during and after sample addition for a total elapsed time of 100 seconds. Responses (increase in peak fluorescence) in each well following agonist addition were determined. The initial fluorescence reading from each well, prior to ligand stimulation, was used as a zero baseline value for the data from that well. The responses were expressed as % inhibition of the buffer control. […]

[3] = test system: DK-PGD2-induced IL-13 production in Th2 cells; test: DK-PGD2-Induced IL-13 Production Assay in Th2 Cells; format: cell-based; conditions: human Th2 cells; 500 nM DK-PGD2; 4 hrs at 37° C.; IL-13 by ELISA; read-out: IC50 for inhibition of IL-13 production
Protocol: Inhibition of 13,14-dihydro-15-keto Prostaglandin D2 (DK-PGD2)-induced IL-13 production in T helper type 2 (Th2) cells was applied to evaluate compound cellular potency.
Cultures of Th2 cells were established from blood of healthy human volunteers according to the following procedure. Peripheral blood mononuclear cells (PBMC) were first isolated from 50 mL of fresh blood by Ficoll-Hypaque density gradient centrifugation, followed by CD4^+cell purification using a CD4^+T Cell Isolation Kit II (from Miltenyi Biotec Inc.). The CD4^+T cells were then differentiated to Th2 cells by culturing the cells in X-VIVO 15® medium (from Cambrex BioScience Walkersville Inc.) containing 10% human AB serum (serum of blood type AB from Invitrogen Corporation), 50 U/mL of recombinant human interleukin-2 (rhIL-2) (from PeproTech Inc.) and 100 ng/mL of recombinant human interleukin-4 (rhIL-4) (from PeproTech Inc.) for 7 days. The Th2 cells were isolated using a CD294 (CRTH2) MicroBead Kit (from Miltenyi Biotec Inc.) and amplified in X-VIVO 15® medium containing 10% human AB serum and 50 U/mL of rhIL-2 for 2 to 5 weeks. In general, 70% to 80% of the Th2 cells used in the assay are CRTH2-positive when analyzed by fluorescence-activated cell sorting using the BM16 antibody (as previously described) conjugated to phycoerythrin (PE).
The spontaneous production of IL-13 by Th2 cells was determined in the absence of DK-PGD2 stimulation and the value was subtracted from that in the presence of each compound for percent inhibition and IC50 calculations.
The percent inhibition of interleukin 13 (IL-13) production for a compound at various concentrations was calculated according to the following formula, [1-(IL-13 production in the presence of compound)/(IL-13 production in the presence of 0.15% DMSO)]×100. […]

IC50 [1] [nM] | IC50 [2] [nM] | IC50 [3] [nM] | melting point [°C] | SMILES
40.2 | > 3000 | – | – | NS(=O)(=O)c1ccc(C(=O)c2cc(CC(=O)O)cc3ccc(F)cc23)cc1 [Example 1-2, [6-Fluoro-4-(4-sulfamoyl-benzoyl)-naphthalen-2-yl]-acetic acid]
264 | > 3000 | – | – | CS(=O)(=O)c1ccc(C(=O)c2cc(CC(=O)O)cc3cc4c(cc23)OCO4)cc1 [Example 2-7, [8-(4-Methanesulfonyl-benzoyl)-naphtho[2,3-d][1,3]dioxol-6-yl]-acetic acid]
199 | > 3000 | – | – | COc1ccc2c(C(=O)c3ccc(S(C)(=O)=O)cc3)cc(CC(=O)O)cc2c1 [Example 2-9, [4-(4-Methanesulfonyl-benzoyl)-7-methoxy-naphthalen-2-yl]-acetic acid]
152 | > 3000 | – | – | CS(=O)(=O)c1cccc(C(=O)c2cc(CC(=O)O)cc3cc4c(cc23)OCO4)c1 [Example 2-12, [8-(3-Methanesulfonyl-benzoyl)-naphtho[2,3-d][1,3]dioxol-6-yl]-acetic acid]
82.5 | > 3000 | – | – | CS(=O)(=O)c1cccc(C(=O)c2cc(CC(=O)O)cc3ccc(Cl)cc23)c1 [Example 2-30, [6-Chloro-4-(3-methanesulfonyl-benzoyl)-naphthalen-2-yl]-acetic acid]
53.3 | > 3000 | – | – | CC(C(=O)O)c1cc(C(=O)c2ccc(S(C)(=O)=O)cc2)c2cc(F)ccc2c1 (centres unmarked) [Example 7-1, 2-[6-Fluoro-4-(4-methanesulfonyl-benzoyl)-naphthalen-2-yl]-propionic acid]
162 | – | > 10000 | – | CS(=O)(=O)c1ccc(Cc2cc(CC(=O)O)cc3cc(C(F)(F)F)ccc23)cc1 [Example 8-3, [4-(4-Methanesulfonyl-benzyl)-7-trifluoromethyl-naphthalen-2-yl]-acetic acid]
9.5 | – | – | – | O=C(O)Cc1cc(C(O)c2ccc(S(=O)(=O)N3CCOCC3)cc2)c2cc(F)ccc2c1 (centres unmarked) [Example 19-2, (6-Fluoro-4-{hydroxy-[4-(morpholine-4-sulfonyl)-phenyl]-methyl}-naphthalen-2-yl)-acetic acid]

Continued, compound first:

SMILES | IC50 [1] [nM] | IC50 [2] [nM] | IC50 [3] [nM] | melting point [°C]
NS(=O)(=O)c1ccc(C(=O)c2cc(CC(=O)O)cc3ccccc23)cc1 [Example 1-3, [4-(4-Sulfamoyl-benzoyl)-naphthalen-2-yl]-acetic acid] | 336 | > 3000 | – | –
CS(=O)(=O)c1cccc(C(=O)c2cc(CC(=O)O)cc3ccccc23)c1 [Example 2-11, [4-(3-Methanesulfonyl-benzoyl)-naphthalen-2-yl]-acetic acid] | 135 | > 3000 | – | –
CS(=O)(=O)c1ccc(C(=O)c2cc(CC(=O)O)cc3ccc(C(F)(F)F)cc23)cc1 [Example 2-29, [4-(4-Methanesulfonyl-benzoyl)-6-trifluoromethyl-naphthalen-2-yl]-acetic acid] | 7.5 | – | 3000 | –
Cc1c(CC(=O)O)cc2ccc(F)cc2c1Cc1ccc(S(=O)(=O)C(F)(F)F)cc1 [Example 11-1, [6-Fluoro-3-methyl-4-(4-trifluoromethanesulfonyl-benzyl)-naphthalen-2-yl]-acetic acid] | 3 | – | – | 200 to 201
Cc1ccc2cc(CC(=O)O)cc(C(O)c3ccc(S(C)(=O)=O)cc3)c2c1 (centres unmarked) [Example 16-2, {4-[Hydroxy-(4-methanesulfonyl-phenyl)-methyl]-6-methyl-naphthalen-2-yl}-acetic acid] | 386 | – | 5750 | –
CNS(=O)(=O)c1ccc(C(O)c2cc(CC(=O)O)cc3ccc(F)cc23)cc1 (centres unmarked) [Example 20-1, {6-Fluoro-4-[hydroxy-(4-methylsulfamoyl-phenyl)-methyl]-naphthalen-2-yl}-acetic acid] | 22.1 | – | – | –
